According to PMC4365786 (Chemistry & biology, 2015):

Tests used:
[1] = tested on: histone acetylation (H3K18ac) in HCT116 cells; assay: Drug washout, histone acetylation by Western blotting; assay type: cell-based; conditions: 6 h pulse then washout, time counted from drug addition
[2] = tested on: HDACs in HCT116; assay type: cell-based; conditions: HCT116 (Fig. 2C) and HepG2 cells (data not shown)
[3] = tested on: MDA-MB-231 cells; assay: Cell viability assay; assay type: cell-based; conditions: read-out: IC50 viability MDA-MB-231, CellTiter-Glo, 96 h (Fig. 3C)
[4] = tested on: MDA-MB-231 cells; assay: Wound healing cell migration assay; assay type: cell-based; conditions: MDA-MB-231 monolayer scratch; UF010 at 1 μM
[5] = tested on: MDA-MB-231 cells; assay: Cell cycle analysis by FACS; assay type: cell-based; conditions: MDA-MB-231, 24 h exposure
[6] = tested on: α-tubulin acetylation in HCT116 and A549 cells; assay: Western blotting of α-tubulin acetylation; assay type: cell-based; conditions: TSA 0.2 μM, UF010 2 μM, 1 h before lysis
[7] = target: HDAC2 (Homo sapiens, UniProt Q92769); assay: HDAC2 inhibition kinetics; assay type: biochemical; conditions: purified HDAC2
Sequence of HDAC2 (Q92769 whole entry): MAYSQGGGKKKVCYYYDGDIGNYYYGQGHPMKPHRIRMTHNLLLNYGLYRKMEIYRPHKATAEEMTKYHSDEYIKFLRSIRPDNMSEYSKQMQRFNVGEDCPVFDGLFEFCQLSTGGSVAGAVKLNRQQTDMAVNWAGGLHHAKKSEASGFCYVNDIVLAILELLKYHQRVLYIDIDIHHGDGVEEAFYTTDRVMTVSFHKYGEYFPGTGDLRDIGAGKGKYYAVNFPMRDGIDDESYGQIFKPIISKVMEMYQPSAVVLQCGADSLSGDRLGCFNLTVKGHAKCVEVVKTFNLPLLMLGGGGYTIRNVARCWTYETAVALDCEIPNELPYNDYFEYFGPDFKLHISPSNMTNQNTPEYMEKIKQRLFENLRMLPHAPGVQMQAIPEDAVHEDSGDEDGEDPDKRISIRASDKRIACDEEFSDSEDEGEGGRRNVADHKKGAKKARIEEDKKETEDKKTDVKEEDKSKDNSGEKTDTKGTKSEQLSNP

[8] = tested on: Sin3 complex; assay: Inhibition of the Sin3 complex; conditions: data not shown
[9] = tested on: acetylated histones in HCT116 cells; assay: Western blotting of histone acetylation after 1 h exposure; assay type: cell-based; conditions: TSA 0.2 μM, other compounds 2 μM
[10] = bovine, serum
[11] = tested on: HepG2 cells; assay: Cell viability assay; assay type: cell-based; conditions: CellTiter-Glo, 96 h
[12] = tested on: HCT116 cells; assay: Cell viability assay; assay type: cell-based; conditions: Homo sapiens, HCT-116, 96 h, read-out: IC50 for killing HCT116 cells

SMILES	time up to which induced histone acetylation was maintained [1]	effect on cell cycle progression [5]	effect on α-tubulin acetylation [6]	induction of histone acetylation [9]	further results
C/C=C1\NC(=O)[C@H]2CSSCC/C=C/[C@H](CC(=O)N[C@H](C(C)C)C(=O)N2)OC(=O)[C@H](C(C)C)NC1=O [Romi-depsin, romidepsin]	up to 24 h	–	–	–	–
CCCCNNC(=O)c1ccc(Br)cc1 [UF010]	up to 96 h	mainly blocked G1/S transition	had no effect	consistently induced the accumulation of acetylated histones at all sites	fold more potent than MS-275 against HDACs in cells [2]: about 5 fold; IC50 [3]: 29.1 µM; effect on cell migration [4]: markedly slowed migration; mechanism of HDAC2 inhibition vs. substrate [7]: competitive inhibitor; inhibition of the Sin3 complex [8]: can inhibit; half-life in cell culture medium [10]: 15.8 h
CCCCNNC(=O)c1ccc(N(C)C)cc1 [SR-3208]	–	–	–	–	fold more potent than UF010 in eliciting cytotoxicity [11]: 3 fold
O=C(CCCCCCC(=O)Nc1ccccc1)NO [SAHA, vorinostat, reference compound]	–	inhibited G1/S progression at 1 μM but induced a strong G2/M block at 10 μM	–	–	–
CC(/C=C/C(=O)NO)=C\[C@@H](C)C(=O)c1ccc(N(C)C)cc1 [TSA, trichostatin A, reference compound]	–	–	dramatically increased	strongly induced acetylation at some sites but weakly at other sites	–
Nc1ccccc1NC(=O)c1ccc(CNC(=O)OCc2cccnc2)cc1 [MS-275, entinostat]	at least 48 h	–	–	only slightly induced acetylation at several sites but failed to induce acetylation at most sites	IC50 [12]: 2.1 µM
